Source: US20200385371A1 (Propellon Therapeutics Inc., priority 2017, published 2020)
Where two headings read alike, the source gives them in different places.

Experiments:
MV4-11 cells = assay: Cell proliferation assay (ATPlite); format: cell-based; conditions: Homo sapiens; for EC50: 120 h, MV4-11 cells, five days, read-out: GI MV411 EC50; for IC50: MV4-11, Table 2
Outline: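 ATPlite luminescence after five days' culture (37° C, 5% CO2) gives viability. Compounds dosed in 10 concentrations up to 10 μM against DMSO; 1,000 cells/well seeded in Alpha-MEM/10% FBS.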

WDR5 [1] = biological target: T1, WDR5 (Homo sapiens, UniProt P61964); assay: Surface Plasmon Resonance (SPR) assay; format: binding; set-up: Full length WDR5 with an N-terminal His tag and C-terminal AviTag; His tag (N); made in house; host or cells: E. coli
Outline: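 Full-length biotinylated WDR5 (N-His, C-AviTag, E. coli) captured (~3000 RU) on streptavidin SA chip; Biacore T200. HBS-EP pH 7.4 plus 5% DMSO running buffer, 40 μl/min.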

WDR5 [2] = biological target: T1, WDR5; assay: Fluorescence Polarization (FP) binding assay
Outline: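 Buffer was pH 6.5 sodium phosphate (80 mM) with 20 mM KCl and 0.008% Triton X-100; 9-Ala-FAM probe at 20 nM used 0.05 μM WDR5 and 480/540 nm polarization, H3 (1-15) probe at 30 nM used 0.3 μM WDR5 and 485/528 nm. Quadruplicate data were hyperbola-fitted to give Kdisp.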

MLL1-WRAD2 complex = biological target: T2, MLL1-WRAD2 complex (Homo sapiens, UniProt P61964); assay: MLL1-WRAD2 enzyme assay (HMT); format: biochemical
T2 construct: His tag (N); made in house; host or cells: E. coli
Method: Specifically, recombinant human MLL1 (aa 3745-3969, GenBank Accession No. NM_005933), WDR5 (aa 22-334, GenBank Accession No. NM_017588), RbBP5 (aa 1-538, GenBank Accession No. NM_005057), Ash2L (aa 2-534, GenBank Accession No. NM_001105214), and DPY-30 (aa 1-99, GenBank Accession No. NM_0325742), all with N-terminal His tag, are expressed in E. coli and mixed at a molar ratio of 1:1:1:1:2. 10 nM of the assembled MLL1-WRAD2 complex is mixed with 100 nM WRAD2 to enhance complex formation before incubation with 0.05 mg/ml nucleosome substrate and compounds (as 10 point duplicate dose response titrations) for 15 min in a buffer consisting of 50 mM Tris (pH 8.5), 5 mM MgCl2, 50 mM NaCl, 1 mM DTT, 0.01% Brij-35, and 1% DMSO. Reaction is initiated with 1 μM 3H-SAM and incubated for 1 hour at 30° C. Reaction mixture is transferred to P81 filter-paper and washed with PBS before detection.

[3] = Table 2, effect of difluoro substitution, read-out: KD (SPR)

Structure (SMILES)	EC50 (MV4-11 cells) [nM]	Kd (WDR5 [1]; read-out: SPR Kd) [nM]	IC50 (WDR5 [2]) [nM]	IC50 (MLL1-WRAD2 complex; Table 2) [nM]	IC50 (MV4-11 cells) [nM]	Kd (WDR5 [1]; [3]) [nM]	IC50 (MLL1-WRAD2 complex; Table 2, no unit printed in the cell) [nM]
C[C@H]1CN(c2cc(F)c(-c3ccc4c(c3)OCO4)c(F)c2NC(=O)c2c[nH]c(=O)cc2C(F)(F)F)CCN1C [Example 184, (S)—N-(3-(benzo[d][1,3]dioxol-5-yl)-6-(3,4-dimethylpiperazin-1-yl)-2,4-difluorophenyl)-6-oxo-4-(trifluoromethyl)-1,6-dihydropyridine-3-carboxamide]	90.3	1.17	25.5	–	–	–	–
C[C@H]1CN(c2cc(F)c(-c3ccc4c(c3)OCCO4)c(F)c2NC(=O)c2c[nH]c(=O)cc2C(F)(F)F)CCN1C [Example 185, (S)—N-(3-(2,3-dihydrobenzo[b][1,4]dioxin-6-yl)-6-(3,4-dimethylpiperazin-1-yl)-2,4-difluorophenyl)-6-oxo-4-(trifluoromethyl)-1,6-dihydropyridine-3-carboxamide]	170	1.29	26.5	–	–	–	–
C[C@H]1CN(c2cc(F)c(-c3ccc(OC4CCOCC4)nc3)c(F)c2NC(=O)c2c[nH]c(=O)cc2C(F)(F)F)CCN1C [Example 186, (S)—N-(6-(3,4-dimethylpiperazin-1-yl)-2,4-difluoro-3-(6-((tetrahydro-2H-pyran-4-yl)oxy)pyridin-3-yl)phenyl)-6-oxo-4-(trifluoromethyl)-1,6-dihydropyridine-3-carboxamide]	39.9	0.8	26.9	–	–	–	–
C[C@H]1CN(c2cc(F)c(C3=CCN(C(=O)c4csc(CN(C)C)n4)CC3)c(F)c2NC(=O)c2c[nH]c(=O)cc2C(F)F)CCN1C [Example 187, (S)-4-(difluoromethyl)-N-(3-(1-(2-((dimethylamino)methyl)thiazole-4-carbonyl)-1,2,3,6-tetrahydropyridin-4-yl)-6-(3,4-dimethylpiperazin-1-yl)-2,4-difluorophenyl)-6-oxo-1,6-dihydropyridine-3-carboxamide]	913	2.95	14.7	–	–	–	–
Cc1nc(C(=O)N2CCC=C(c3c(F)cc(N4C[C@@H](C)N(C)[C@@H](C)C4)c(NC(=O)c4c[nH]c(=O)cc4C(F)(F)F)c3F)C2)cs1 [Example 188, N-(2,4-difluoro-3-(1-(2-methylthiazole-4-carbonyl)-1,2,5,6-tetrahydropyridin-3-yl)-6-((3S,5R)-3,4,5-trimethylpiperazin-1-yl)phenyl)-6-oxo-4-(trifluoromethyl)-1,6-dihydropyridine-3-carboxamide]	468	2.54	13.1	–	–	–	–
C[C@@H]1CN(c2cc(F)c(C3=CCCN(C(=O)c4csc(CN(C)C)n4)C3)c(F)c2NC(=O)c2c[nH]c(=O)cc2C(F)(F)F)C[C@H](C)N1C [Example 189, N-(3-(1-(2-((dimethylamino)methyl)thiazole-4-carbonyl)-1,2,5,6-tetrahydropyridin-3-yl)-2,4-difluoro-6-((3S,5R)-3,4,5-trimethylpiperazin-1-yl)phenyl)-6-oxo-4-(trifluoromethyl)-1,6-dihydropyridine-3-carboxamide]	487	1.51	12.7	–	–	–	–
C[C@@H]1CN(c2ccc(-c3c(F)cc(N4C[C@@H](C)N(C)[C@@H](C)C4)c(NC(=O)c4c[nH]c(=O)cc4C(F)F)c3F)cn2)CCO1 [Example 190, N-(2,4-difluoro-3-(6-((R)-2-methylmorpholino)pyridin-3-yl)-6-((3S,5R)-3,4,5-trimethylpiperazin-1-yl)phenyl)-4-(difluoromethyl)-6-oxo-1,6-dihydropyridine-3-carboxamide]	48.6	0.96	12.8	–	–	–	–
C[C@@H]1CN(c2ccc(-c3c(F)cc(N4C[C@@H](C)N(C)[C@@H](C)C4)c(NC(=O)c4c[nH]c(=O)cc4C(F)F)c3F)cn2)C[C@H](C)O1 [Example 191, 4-(Difluoromethyl)-N-(3-(6-((2S,6R)-2,6-dimethylmorpholino)pyridin-3-yl)-2,4-difluoro-6-((3S,5R)-3,4,5-trimethylpiperazin-1-yl)phenyl)-6-oxo-1,6-dihydropyridine-3-carboxamide]	40.8	1.07	10.7	–	–	–	–
C[C@@H]1CN(c2cc(F)c(-c3ccc(N4CCO[C@@H](C)C4)nc3)c(F)c2NC(=O)c2c[nH]c(=O)cc2C(F)(F)F)C[C@H](C)N1C [Example 192, N-(2,4-difluoro-3-(6-((S)-2-methylmorpholino)pyridin-3-yl)-6-((3S,5R)-3,4,5-trimethylpiperazin-1-yl)phenyl)-6-oxo-4-(trifluoromethyl)-1,6-dihydropyridine-3-carboxamide]	70.1	0.97	16.4	–	–	–	–
C[C@@H]1CN(c2ncc(-c3c(F)cc(N4C[C@@H](C)N(C)[C@@H](C)C4)c(NC(=O)c4c[nH]c(=O)cc4C(F)(F)F)c3F)cn2)C[C@H](C)O1 [drawing 478, reference compound]	–	–	–	41	31	1.8	–
C[C@@H]1CN(c2cc(F)c(-c3cnc(N4CCOCC4)nc3)c(F)c2NC(=O)c2c[nH]c(=O)cc2C(F)(F)F)C[C@H](C)N1C [drawing 479, reference compound]	–	–	–	63	30	3.7	–
C[C@@H]1CN(c2ncc(-c3cc(NC(=O)c4c[nH]c(=O)cc4C(F)(F)F)c(N4C[C@@H](C)N(C)[C@@H](C)C4)cc3F)cn2)C[C@H](C)O1 [reference compound]	–	–	–	–	–	0.4	150
C[C@@H]1CN(c2ccc(-c3cnc(N4CCOCC4)nc3)c(F)c2NC(=O)c2c[nH]c(=O)cc2C(F)(F)F)C[C@H](C)N1C [reference compound]	–	–	–	154	–	1.1	–
